Results as given in US9833455B2, “Preparation and methods of use for ortho-aryl 5-membered heteroaryl-carboxamide containing multi-targeted kinase inhibitors” (Spacefill Enterprises LLC, priority 2011, dated 2017).

Legend:
CRAF = CRAF (Homo sapiens, UniProt P04049); test: Nanosyn kinase profiling, % inhibition; format: biochemical; details: panel of 230 kinases
Experimental: (§1) “Inhibiting kinase activity” means to decrease the production of an phosphor-peptide by a particular kinase that can be separated by analytical techniques. For example, a comprehensive platform of kinase, protease, phosphatase and epigenetic assays that utilizes cutting-edge microfluidics and informatics tools to provide accurate and rapid results. Profiling data in this application were determined using these techniques at Nanosyn Inc. IC50 data were provided by Reaction Biology Inc using a P33 radiolabeled kinase assay.
(§2) A total of 15 new inhibitors were designed, prepared, and evaluated against a panel of 29 selected kinases in order to explore the applicability, SAR trends, and the tunability of this scaffold that could be imposed but this unique geometry, Table 21. Inhibitors I-1 to 1-12 all retained the 2-CF3-5-(4-F-phenyl) imidazole-4-carboxamide scaffold previously described (Deitrich, 2010), but explored different Hinge-Gatekeeper Motifs (HGM).
(§3) More modest activity for Aurora-A, FLT-1/4, KDR, KIT, PDGFRs was accompanied by better activity for B-Raf mutant and wild-type forms, Modest inhibition of MEK-1, BTK, c-Met, RET, and RON was also observed. […] Moreover, the observed inhibition of MEK-1 with 1-12 and TYK2 with I-6 represents additional activities against kinases for which no type-II inhibitors have been reported to date. […] To further evaluate the scope of inhibition, I-6 was evaluated against a larger panel of 230 kinases, Table-22.

P38-α = P38-α (Homo sapiens, UniProt Q16539); test: Nanosyn kinase profiling, % inhibition; format: biochemical; details: panel of 230 kinases
Chain of P38-α (Q16539 whole entry): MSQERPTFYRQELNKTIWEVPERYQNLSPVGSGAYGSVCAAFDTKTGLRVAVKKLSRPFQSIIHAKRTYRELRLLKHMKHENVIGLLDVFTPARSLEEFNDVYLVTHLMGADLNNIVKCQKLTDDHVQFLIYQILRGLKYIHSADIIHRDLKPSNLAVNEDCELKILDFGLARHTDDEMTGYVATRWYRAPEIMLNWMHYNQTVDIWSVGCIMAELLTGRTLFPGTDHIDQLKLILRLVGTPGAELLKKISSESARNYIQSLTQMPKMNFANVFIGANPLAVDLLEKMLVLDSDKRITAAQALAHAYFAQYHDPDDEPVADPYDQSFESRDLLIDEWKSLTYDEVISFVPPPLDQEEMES
Experimental: as §1, §2, §3

BRAF = target: T1, BRAF (Homo sapiens, UniProt P15056); test: Nanosyn kinase profiling, % inhibition; format: biochemical; details: panel of 230 kinases
T1 construct: literature Ambit Biosciences
Experimental: as §1, §2, §3

FLT3 = FLT3 (Homo sapiens, UniProt P36888); test: Nanosyn kinase profiling, % inhibition; format: biochemical; details: panel of 230 kinases
Experimental: as §1, §2, §3

EPHA2 = EPHA2 (Homo sapiens, UniProt P29317); test: Nanosyn kinase profiling, % inhibition; format: biochemical; details: panel of 230 kinases
Experimental: as §1, §2, §3

FMS = FMS (Homo sapiens, UniProt P07333); test: Nanosyn kinase profiling, % inhibition; format: biochemical; details: panel of 230 kinases
Experimental: as §1, §2, §3

TYK2 = TYK2 (Homo sapiens, UniProt P29597); test: Nanosyn kinase profiling, % inhibition; format: biochemical; details: panel of 230 kinases
Experimental: as §1, §2, §3

FLT1 = FLT1 (Homo sapiens, UniProt P17948); test: Nanosyn kinase profiling, % inhibition; format: biochemical; details: panel of 230 kinases
Experimental: as §1, §2, §3

KIT [1] = target: T2, KIT (Homo sapiens, UniProt P10721); test: Nanosyn kinase profiling, % inhibition; format: biochemical; details: panel of 230 kinases
T2 sequence (P10721 26-976): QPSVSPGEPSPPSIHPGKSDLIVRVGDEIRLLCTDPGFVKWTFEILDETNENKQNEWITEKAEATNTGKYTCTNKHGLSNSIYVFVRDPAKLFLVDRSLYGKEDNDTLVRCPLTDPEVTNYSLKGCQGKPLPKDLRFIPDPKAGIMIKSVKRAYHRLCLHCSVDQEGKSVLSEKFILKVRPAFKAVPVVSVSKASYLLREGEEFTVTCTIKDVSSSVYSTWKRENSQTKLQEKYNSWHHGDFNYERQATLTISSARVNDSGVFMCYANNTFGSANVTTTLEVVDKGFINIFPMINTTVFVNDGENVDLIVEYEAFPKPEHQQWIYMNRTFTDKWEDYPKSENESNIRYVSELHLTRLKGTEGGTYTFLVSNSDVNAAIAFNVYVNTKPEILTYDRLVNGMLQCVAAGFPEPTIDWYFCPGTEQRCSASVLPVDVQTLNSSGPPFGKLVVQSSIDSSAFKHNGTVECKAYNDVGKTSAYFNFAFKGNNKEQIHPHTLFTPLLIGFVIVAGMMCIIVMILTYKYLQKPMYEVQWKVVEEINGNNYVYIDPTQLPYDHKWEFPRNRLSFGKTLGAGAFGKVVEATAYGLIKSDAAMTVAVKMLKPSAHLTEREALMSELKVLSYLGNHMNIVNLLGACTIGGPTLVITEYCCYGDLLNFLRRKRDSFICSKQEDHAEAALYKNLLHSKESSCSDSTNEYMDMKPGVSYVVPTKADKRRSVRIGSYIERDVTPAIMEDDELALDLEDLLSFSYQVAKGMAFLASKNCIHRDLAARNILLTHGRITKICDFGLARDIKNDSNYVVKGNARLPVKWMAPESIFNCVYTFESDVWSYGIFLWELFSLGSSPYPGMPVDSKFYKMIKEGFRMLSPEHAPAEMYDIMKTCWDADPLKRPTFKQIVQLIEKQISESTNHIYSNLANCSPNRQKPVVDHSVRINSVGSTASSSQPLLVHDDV
Experimental: as §1, §2, §3

TIE2 = TIE2 (Homo sapiens, UniProt Q02763); test: Nanosyn kinase profiling, % inhibition; format: biochemical; details: panel of 230 kinases
Experimental: as §1, §2, §3

PDGFR-α = PDGFR-α (Homo sapiens, UniProt P16234); test: Nanosyn kinase profiling, % inhibition; format: biochemical; details: panel of 230 kinases
Chain of PDGFR-α (P16234 24-1089): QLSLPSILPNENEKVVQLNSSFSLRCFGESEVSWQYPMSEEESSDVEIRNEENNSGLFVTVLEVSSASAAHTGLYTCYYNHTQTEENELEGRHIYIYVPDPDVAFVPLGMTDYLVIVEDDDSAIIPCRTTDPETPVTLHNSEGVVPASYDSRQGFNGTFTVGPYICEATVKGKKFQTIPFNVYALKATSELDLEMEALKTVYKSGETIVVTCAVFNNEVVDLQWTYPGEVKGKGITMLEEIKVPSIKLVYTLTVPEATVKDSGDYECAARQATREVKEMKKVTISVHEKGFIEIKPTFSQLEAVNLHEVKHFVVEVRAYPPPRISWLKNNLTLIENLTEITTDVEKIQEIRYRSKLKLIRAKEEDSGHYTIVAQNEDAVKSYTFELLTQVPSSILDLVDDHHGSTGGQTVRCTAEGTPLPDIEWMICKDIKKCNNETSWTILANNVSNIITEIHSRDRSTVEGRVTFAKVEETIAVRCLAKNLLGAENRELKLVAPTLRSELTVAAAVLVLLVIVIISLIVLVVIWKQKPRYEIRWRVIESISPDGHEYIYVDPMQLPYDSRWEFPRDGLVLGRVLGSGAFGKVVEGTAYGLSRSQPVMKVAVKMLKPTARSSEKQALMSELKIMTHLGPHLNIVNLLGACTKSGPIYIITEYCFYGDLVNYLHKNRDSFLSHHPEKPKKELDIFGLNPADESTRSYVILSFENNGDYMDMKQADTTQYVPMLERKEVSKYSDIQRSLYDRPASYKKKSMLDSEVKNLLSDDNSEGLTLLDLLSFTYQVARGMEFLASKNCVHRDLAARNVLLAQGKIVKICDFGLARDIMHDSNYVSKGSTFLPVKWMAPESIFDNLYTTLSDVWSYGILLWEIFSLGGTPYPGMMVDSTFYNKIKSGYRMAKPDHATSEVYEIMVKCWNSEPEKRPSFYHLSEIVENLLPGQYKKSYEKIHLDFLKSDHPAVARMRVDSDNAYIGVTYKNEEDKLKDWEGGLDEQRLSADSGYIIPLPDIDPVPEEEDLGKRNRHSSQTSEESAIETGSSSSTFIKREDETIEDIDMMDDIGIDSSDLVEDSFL
Experimental: as §1, §2, §3

RET = RET (Homo sapiens, UniProt P07949); test: Nanosyn kinase profiling, % inhibition; format: biochemical; details: panel of 230 kinases
Experimental: as §1, §2, §3

PDGFRA = target: T3, PDGFRA (Homo sapiens, UniProt P16234); details: 1 μM, duplicate, without preincubation; cited from earlier work
T3 construct: literature Ambit Biosciences
T3 sequence (P16234 24-1089): as above

BRAF(V600E) = BRAF(V600E) (Homo sapiens, UniProt P15056, V600E); test: LanthaScreen assay, side by side IC50 comparison; format: biochemical; details: LanthaScreen assay, side by side comparison
Experimental: To test both our binding mode hypothesis and to see if these structural differences could be taken exploited to impart selectivity and potency improvements, I-13, in which the lipophilic 2-trifluoromethy substituent on imidazole ring of inhibitor KIN-035, was replaced by the polar 2-methylsulfonyl substitutent. […] To address this issue, real time kinetic experiments were performed.

MKNK2 = target: T4, MKNK2 (Homo sapiens, UniProt Q9HBH9); details: 1 μM, duplicate, without preincubation; cited from earlier work
T4 construct: literature Ambit Biosciences

PDGFRB = target: T5, PDGFRB (Homo sapiens, UniProt P09619); details: 1 μM, duplicate, without preincubation; cited from earlier work
T5 construct: literature Ambit Biosciences
T5 sequence (P09619 33-1106): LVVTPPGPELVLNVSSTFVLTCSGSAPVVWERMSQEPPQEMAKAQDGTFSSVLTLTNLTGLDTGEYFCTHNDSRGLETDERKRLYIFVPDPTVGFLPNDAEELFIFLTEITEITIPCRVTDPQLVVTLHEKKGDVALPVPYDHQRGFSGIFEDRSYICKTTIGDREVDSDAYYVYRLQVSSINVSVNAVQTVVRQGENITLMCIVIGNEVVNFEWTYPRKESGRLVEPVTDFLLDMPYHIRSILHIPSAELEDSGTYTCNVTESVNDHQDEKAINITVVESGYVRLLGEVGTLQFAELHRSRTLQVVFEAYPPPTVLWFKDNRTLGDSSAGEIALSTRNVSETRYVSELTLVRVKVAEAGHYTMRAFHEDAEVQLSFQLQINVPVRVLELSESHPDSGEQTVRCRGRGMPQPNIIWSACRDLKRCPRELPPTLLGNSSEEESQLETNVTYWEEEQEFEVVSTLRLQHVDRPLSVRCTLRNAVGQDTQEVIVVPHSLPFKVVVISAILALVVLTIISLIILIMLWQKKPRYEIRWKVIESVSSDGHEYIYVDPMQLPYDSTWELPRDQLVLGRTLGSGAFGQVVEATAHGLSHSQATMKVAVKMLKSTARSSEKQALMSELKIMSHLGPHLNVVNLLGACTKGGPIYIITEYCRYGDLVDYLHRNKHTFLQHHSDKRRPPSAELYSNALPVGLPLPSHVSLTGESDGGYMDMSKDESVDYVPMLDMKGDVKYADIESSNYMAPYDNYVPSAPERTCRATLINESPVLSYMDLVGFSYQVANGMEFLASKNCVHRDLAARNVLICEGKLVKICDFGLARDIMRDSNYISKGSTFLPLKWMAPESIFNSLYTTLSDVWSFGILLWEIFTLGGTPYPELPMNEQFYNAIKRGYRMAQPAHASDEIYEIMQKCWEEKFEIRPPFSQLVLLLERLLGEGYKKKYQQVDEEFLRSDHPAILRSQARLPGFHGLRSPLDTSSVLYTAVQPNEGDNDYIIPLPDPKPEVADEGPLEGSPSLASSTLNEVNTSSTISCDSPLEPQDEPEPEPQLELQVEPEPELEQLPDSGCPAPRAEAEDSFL

EGFR = target: T6, EGFR (Homo sapiens, UniProt P00533); details: 1 μM, duplicate, without preincubation; cited from earlier work
T6 construct: literature Ambit Biosciences

PIK3CA = target: T7, PIK3CA (Homo sapiens, UniProt P42336); details: 1 μM, duplicate, without preincubation; cited from earlier work
T7 construct: literature Ambit Biosciences
T7 sequence (P42336 whole entry): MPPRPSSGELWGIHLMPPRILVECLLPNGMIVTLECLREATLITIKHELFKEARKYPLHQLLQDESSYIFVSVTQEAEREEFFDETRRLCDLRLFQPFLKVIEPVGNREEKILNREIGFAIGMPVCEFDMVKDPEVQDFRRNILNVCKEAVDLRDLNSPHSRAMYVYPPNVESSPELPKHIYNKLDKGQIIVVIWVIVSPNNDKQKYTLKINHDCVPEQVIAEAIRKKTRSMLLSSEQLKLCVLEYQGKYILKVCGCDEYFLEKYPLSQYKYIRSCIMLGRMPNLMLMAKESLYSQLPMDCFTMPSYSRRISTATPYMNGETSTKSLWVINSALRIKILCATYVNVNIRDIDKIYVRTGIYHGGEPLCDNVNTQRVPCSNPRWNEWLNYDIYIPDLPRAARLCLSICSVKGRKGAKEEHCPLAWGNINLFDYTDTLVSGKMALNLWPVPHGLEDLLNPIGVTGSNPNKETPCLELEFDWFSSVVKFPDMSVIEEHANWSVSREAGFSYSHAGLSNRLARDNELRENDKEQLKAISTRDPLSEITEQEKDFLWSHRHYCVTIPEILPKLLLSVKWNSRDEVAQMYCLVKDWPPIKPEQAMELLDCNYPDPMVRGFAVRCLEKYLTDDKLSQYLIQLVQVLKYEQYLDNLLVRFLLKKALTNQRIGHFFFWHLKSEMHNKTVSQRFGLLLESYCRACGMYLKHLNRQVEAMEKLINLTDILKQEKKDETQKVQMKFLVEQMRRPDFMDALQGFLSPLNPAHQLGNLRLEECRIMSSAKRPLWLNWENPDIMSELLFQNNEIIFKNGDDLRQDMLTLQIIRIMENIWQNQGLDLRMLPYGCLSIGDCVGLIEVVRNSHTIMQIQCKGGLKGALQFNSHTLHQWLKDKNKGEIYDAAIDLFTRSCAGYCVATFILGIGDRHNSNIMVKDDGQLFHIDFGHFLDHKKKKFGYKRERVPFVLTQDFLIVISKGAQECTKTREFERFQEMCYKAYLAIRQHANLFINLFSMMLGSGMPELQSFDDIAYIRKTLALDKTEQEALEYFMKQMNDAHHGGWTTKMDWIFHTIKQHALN

KIT [2] = target: T2, KIT; details: 1 μM, duplicate, without preincubation; cited from earlier work
CSF1R = target: T8, CSF1R (Homo sapiens, UniProt P07333); details: cited from earlier work
T8 construct: literature Ambit Biosciences

p38-beta = target: T9, p38-beta (Homo sapiens, UniProt Q15759); details: 1 μM, duplicate, without preincubation; cited from earlier work
T9 construct: literature Ambit Biosciences
T9 sequence (Q15759 whole entry): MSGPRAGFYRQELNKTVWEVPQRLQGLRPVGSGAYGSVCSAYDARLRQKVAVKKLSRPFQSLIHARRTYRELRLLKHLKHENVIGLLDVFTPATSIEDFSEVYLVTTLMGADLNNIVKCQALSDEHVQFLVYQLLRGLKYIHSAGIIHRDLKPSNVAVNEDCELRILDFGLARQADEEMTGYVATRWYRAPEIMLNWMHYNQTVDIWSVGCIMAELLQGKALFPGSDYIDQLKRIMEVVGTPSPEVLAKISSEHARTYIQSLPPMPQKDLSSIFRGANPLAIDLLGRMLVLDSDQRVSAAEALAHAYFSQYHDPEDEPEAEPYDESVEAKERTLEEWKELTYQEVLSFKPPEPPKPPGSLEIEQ

p38-alpha = target: T10, p38-alpha (Homo sapiens, UniProt Q16539); details: 1 μM, duplicate, without preincubation; cited from earlier work
T10 construct: literature Ambit Biosciences
T10 sequence (Q16539 whole entry): as the sequence (Q16539 whole entry) above

CDK3 = target: T11, CDK3 (Homo sapiens, UniProt Q00526); details: 1 μM, duplicate, without preincubation; cited from earlier work
T11 construct: literature Ambit Biosciences

CNC(=O)c1cc(Oc2ccc(NC(=O)c3nc(C(F)(F)F)[nH]c3-c3ccc(F)cc3)cc2)ccn1 [Inhibitor I-6, 4-(4-{[5-(4-Fluoro-phenyl)-2-trifluoromethyl-3H-imidazole-4-carbonyl]-amino}-phenoxy)-pyridine-2-carboxylic acid methylamide]
inhibition at 5 µM (CRAF): ≥ 50%
inhibition at 5 µM (P38-α): ≥ 50%
inhibition at 5 µM (BRAF): ≥ 50%
inhibition at 5 µM (FLT3): ≥ 50%
inhibition at 5 µM (EPHA2): ≥ 50%
inhibition at 5 µM (FMS): ≥ 50%
inhibition at 5 µM (TYK2): ≥ 50%
inhibition at 5 µM (FLT1): ≥ 50%
inhibition at 5 µM (KIT [1]): ≥ 50%
inhibition at 5 µM (TIE2): ≥ 50%
inhibition at 5 µM (PDGFR-α): ≥ 50%
inhibition at 5 µM (RET): ≥ 50%

Cc1ccc(NC(=O)c2[nH]c(C(F)(F)F)nc2-c2ccc(F)cc2)cc1Nc1ccc2ncn(C)c(=O)c2c1 [KIN-035]
inhibition of PDGFRA (PDGFRA): XX (XX > 50% @ 1 μM)
IC50 (BRAF(V600E)): 67 nM
inhibition of MKNK2 (MKNK2): X (X > 25% @ 1 μM)
inhibition of PDGFRB (PDGFRB): XXX (XXX > 75% @ 1 μM)
inhibition of EGFR (EGFR): X (X > 25% @ 1 μM)
inhibition of PIK3CA (PIK3CA): X (X > 25% @ 1 μM)
inhibition of KIT (KIT [2]): XXXX (XXXX > 90% @ 1 μM)
improved potency for CSF1R, KIN-032 vs KIN-035 (4-fluoro-substituent) (CSF1R): 70 fold
inhibition of p38-beta (p38-beta): X (X > 25% @ 1 μM)
inhibition of p38-alpha (p38-alpha): XXXX (XXXX > 90% @ 1 μM)

Cc1ccc(-c2nc(C(F)(F)F)[nH]c2C(=O)Nc2ccc(C)c(Nc3ccc4ncn(C)c(=O)c4c3)c2)cc1F [KIN-038]
inhibition of PDGFRA (PDGFRA): XX (XX > 50% @ 1 μM)
inhibition of PDGFRB (PDGFRB): XX (XX > 50% @ 1 μM)
inhibition of PIK3CA (PIK3CA): X (X > 25% @ 1 μM)
inhibition of KIT (KIT [2]): XXXX (XXXX > 90% @ 1 μM)
inhibition of p38-beta (p38-beta): X (X > 25% @ 1 μM)
inhibition of p38-alpha (p38-alpha): XX (XX > 50% @ 1 μM)
inhibition of CDK3 (CDK3): X (X > 25% @ 1 μM)
